Assay results published in ChEMBL document CHEMBL4138121, “Selective photocytotoxicity of anthrols on cancer stem-like cells: The effect of quinone methides or reactive oxygen species” (Eur J Med Chem, 2017).
Calls of active or inactive are those of the source. The rule behind the calls is not given here.

How the values were obtained:
[1] = Dark toxicity against HMLE-shGFP cells after 72 hrs by MTT assay; assay type: cell-based; details: human
[2] = Dark toxicity against HMLE-shEcad cells after 72 hrs by MTT assay; assay type: cell-based; details: human
HMLE [3] = test: Cytotoxicity against HMLE-shEcad cells at 10 uM irradiated at 420 nm at 4 hrs post compound addition for 5 mins measured after 48 hrs by propidium iodide staining-based flow cytometric method; assay type: functional, cell-based; details: Homo sapiens
[4] = Drug uptake in nucleus of HMLE-shGFP cells at 10 uM in absence of irradiation measured after 2 to 3 hrs by confocal microscopic method; assay type: ADME, subcellular; details: human
[5] = Dark toxicity against human HCT116 cells after 72 hrs by MTT assay; assay type: cell-based, HCT-116
[6] = Photocytotoxicity against HMLE-shEcad cells assessed as growth inhibition irradiated at 420 nm at 4, 24, 48 hrs post compound addition for 5 mins measured after 72 hrs by MTT assay; assay type: functional, cell-based; details: Homo sapiens, light or radiation study
[7] = Cytotoxicity against HMLE-shGFP cells at 10 uM irradiated at 420 nm at 4 hrs post compound addition for 5 mins measured after 48 hrs by propidium iodide staining-based flow cytometric method; assay type: cell-based; details: human
[8] = Photocytotoxicity against HMLE-shGFP cells assessed as growth inhibition irradiated at 350 nm at 4, 24, 48 hrs post compound addition for 5 mins measured after 72 hrs by MTT assay; assay type: cell-based; details: Homo sapiens, light or radiation study
[9] = Drug uptake in cytoplasm of HMLE-shGFP cells at 10 uM in absence of irradiation measured after 2 to 3 hrs by confocal microscopic method; assay type: ADME, subcellular; details: human
SUM-159-PT [10] = test: Cell cycle arrest in human SUM159 cells in presence of irradiation; assay type: functional, cell-based
SUM-159-PT [11] = test: Photocytotoxicity against human SUM159 cells assessed as growth inhibition irradiated at 420 nm at 4, 24, 48 hrs post compound addition for 5 mins measured after 72 hrs by MTT assay; assay type: functional, cell-based; details: light or radiation study
HCT-116 [12] = test: Photocytotoxicity against human HCT116 cells assessed as growth inhibition irradiated at 350 nm at 4, 24, 48 hrs post compound addition for 5 mins measured after 72 hrs by MTT assay; assay type: functional, cell-based; details: HCT-116, light or radiation study
Calf thymus DNA [13] = test: Binding affinity to calf thymus DNA at 4.2 x 10^-5 M by UV-vis spectrocopic method; assay type: nucleic-acid assay; details: Bos taurus
[14] = Dark toxicity against human SUM159 cells after 72 hrs by MTT assay; assay type: cell-based, SUM-159-PT
HMLE [15] = test: Cell cycle arrest in HMLE-shEcad cells assessed as delay in S/G2 phase at 5 uM irradiated at 420 nm at 4 hrs post compound addition for 5 mins measured after 24 to 48 hrs by propidium iodide staining-based flow cytometric method; assay type: functional; details: Homo sapiens
[16] = Dark toxicity against human H460 cells after 72 hrs by MTT assay; assay type: cell-based, NCI-H460
[17] = Cell cycle arrest in HMLE-shEcad cells at 1 to 5 uM after 24 to 48 hrs in absence of irradiation by propidium iodide staining-based flow cytometric method; details: human
MCF7 [18] = test: Photocytotoxicity against human MCF7 cells assessed as growth inhibition irradiated at 350 nm at 4, 24, 48 hrs post compound addition for 5 mins measured after 72 hrs by MTT assay; assay type: functional, cell-based; details: MCF7, light or radiation study
NCI-H460 [19] = test: Photocytotoxicity against human H460 cells assessed as growth inhibition irradiated at 350 nm at 4, 24, 48 hrs post compound addition for 5 mins measured after 72 hrs by MTT assay; assay type: functional, cell-based; details: NCI-H460, light or radiation study
[20] = Drug uptake in cytoplasm of HMLE-shGFP cells at 5 uM irradiated at 420 nm for 5 mins measured after 2 to 3 hrs by confocal microscopic method; assay type: ADME, subcellular; details: human
NCI-H460 [21] = test: Photocytotoxicity against human H460 cells assessed as growth inhibition irradiated at 420 nm at 4, 24, 48 hrs post compound addition for 5 mins measured after 72 hrs by MTT assay; assay type: functional, cell-based; details: NCI-H460, light or radiation study
[22] = Drug uptake in intracellular membranes of HMLE-shGFP cells at 5 uM irradiated at 420 nm for 5 mins measured after 2 to 3 hrs by confocal microscopic method; assay type: ADME, cell membranes, Intracellular membrane; details: human
[23] = Photocytotoxicity against HMLE-shGFP cells assessed as growth inhibition irradiated at 420 nm at 4, 24, 48 hrs post compound addition for 5 mins measured after 72 hrs by MTT assay; assay type: cell-based; details: Homo sapiens, light or radiation study
[24] = Drug uptake in plasma membranes of HMLE-shGFP cells at 5 uM irradiated at 420 nm for 5 mins measured after 2 to 3 hrs by confocal microscopic method; assay type: ADME, cell membranes, Plasma membrane; details: human
HCT-116 [25] = test: Photocytotoxicity against human HCT116 cells assessed as growth inhibition irradiated at 420 nm at 4, 24, 48 hrs post compound addition for 5 mins measured after 72 hrs by MTT assay; assay type: functional, cell-based; details: HCT-116, light or radiation study
Calf thymus DNA [26] = test: Binding affinity to calf thymus DNA at 4.2 x 10^-5 M in presence of irradiation at 420 nm for 5 mins by fluorescence spectrocopic method; assay type: nucleic-acid assay; details: Bos taurus
[27] = Cell cycle arrest in HMLE-shGFP cells at 1 to 5 uM after 24 to 48 hrs in absence of irradiation by propidium iodide staining-based flow cytometric method; details: human
[28] = Photocytotoxicity against HMLE-shEcad cells assessed as growth inhibition irradiated at 350 nm at 4, 24, 48 hrs post compound addition for 5 mins measured after 72 hrs by MTT assay; assay type: functional, cell-based; details: Homo sapiens, light or radiation study
[29] = Dark toxicity against human MCF7 cells after 72 hrs by MTT assay; assay type: cell-based
MCF7 [30] = test: Cell cycle arrest in human MCF7 cells in presence of irradiation; assay type: functional, cell-based
HMLE [31] = test: Anticlonogenic activity against HMLE-shEcad cells at 0.5 to 1 uM irradiated at 350 nm at 4 hrs post compound addition for 5 mins for 5 mins measured after 24 hrs by crystal violet staining-based assay; assay type: functional, cell-based; details: Homo sapiens
Calf thymus DNA [32] = test: Binding affinity to calf thymus DNA at 4.2 x 10^-5 M by fluorescence spectrocopic method; assay type: nucleic-acid assay; details: Bos taurus
[33] = Cell cycle arrest in HMLE-shGFP cells assessed as delay in S/G2 phase at 5 uM irradiated at 420 nm at 4 hrs post compound addition for 5 mins measured after 24 to 48 hrs by propidium iodide staining-based flow cytometric method; details: human
[34] = Drug uptake in nucleus of HMLE-shGFP cells at 5 uM irradiated at 420 nm for 5 mins measured after 2 to 3 hrs by confocal microscopic method; assay type: ADME, subcellular; details: human
MCF7 [35] = test: Photocytotoxicity against human MCF7 cells assessed as growth inhibition irradiated at 420 nm at 4, 24, 48 hrs post compound addition for 5 mins measured after 72 hrs by MTT assay; assay type: functional, cell-based; details: MCF7, light or radiation study
HMLE [36] = test: Anticlonogenic activity against HMLE-shEcad cells at 1 uM irradiated at 350 nm at 4 hrs post compound addition for 5 mins measured after 24 hrs by crystal violet staining-based assay; assay type: functional, cell-based; details: Homo sapiens
[37] = Induction of cell damage in HMLE-shGFP cells assessed as degradation of internal structure at 5 uM irradiated at 420 nm for 5 mins measured after 2 to 3 hrs by confocal microscopic method; assay type: cell-based; details: human
[38] = Induction of cell damage in HMLE-shGFP cells assessed as cell swelling at 5 uM irradiated at 420 nm for 5 mins measured after 2 to 3 hrs by confocal microscopic method; assay type: cell-based; details: human
[39] = Drug uptake in nucleus of HMLE-shEcad cells at 5 uM in absence of irradiation measured after 2 to 3 hrs by confocal microscopic method; assay type: ADME, subcellular; details: human
[40] = Drug uptake in cytoplasm of HMLE-shEcad cells at 5 uM in absence of irradiation measured after 2 to 3 hrs by confocal microscopic method; assay type: ADME, subcellular; details: human
[41] = Cell cycle arrest in HMLE-shGFP cells assessed as delay in G1 phase at 5 uM after 24 to 48 hrs in absence of irradiation by propidium iodide staining-based flow cytometric method; details: human
[42] = Anticlonogenic activity against HMLE-shGFP cells at 1 uM irradiated at 350 nm at 4 hrs post compound addition for 5 mins measured after 24 hrs by crystal violet staining-based assay; assay type: cell-based; details: human
[43] = Induction of cell damage in HMLE-shGFP cells assessed as uncoupling of cytoskeleton from plasma membrane at 5 uM irradiated at 420 nm for 5 mins measured after 2 to 3 hrs by confocal microscopic method; assay type: cell-based; details: human

SMILES | IC50 at 72 h [1] | IC50 at 72 h [2] | Activity (HMLE [3]) | IC50 at 72 h [5] | IC50 [6] | Activity [7] | IC50 [8] | Activity (SUM-159-PT [10]) | IC50 (SUM-159-PT [11]) | IC50 (HCT-116 [12]) | IC50 at 72 h [14] | Activity (HMLE [15]) | IC50 at 72 h [16] | Activity [17] | IC50 (MCF7 [18]) | IC50 (NCI-H460 [19]) | Drug uptake [20] | IC50 (NCI-H460 [21]) | Drug uptake [22] | IC50 [23] | also measured
OCc1cc2cc3ccccc3cc2cc1O | 11000 nM | 17000 nM | Active | ≥ 100000 nM | 1000 nM | Toxic | 700 nM | inactive | 2000 nM | 2000 nM | 11000 nM | Active | ≥ 100000 nM | Non-Toxic | 2000 nM | 15000 nM | Active | 10000 nM | Active | 1000 nM | Drug uptake [4]: Not Active; Drug uptake [9]: Active; Activity (Calf thymus DNA [13]): inactive; Drug uptake [24]: Active; IC50 (HCT-116 [25]): 1000 nM; Activity (Calf thymus DNA [26]): Active; Activity [27]: Non-Toxic; IC50 [28]: 2000 nM; IC50 at 72 h [29]: ≥ 100000 nM; Activity (MCF7 [30]): inactive; Activity (HMLE [31]): Active; Activity (Calf thymus DNA [32]): inactive; Activity [33]: Toxic; Drug uptake [34]: Not Active; IC50 (MCF7 [35]): 3000 nM
Oc1cc2cc3ccccc3cc2cc1C(O)(c1ccccc1)c1ccccc1 | 6000 nM | 2000 nM | Active | 21000 nM | 2000 nM | Toxic | 1000 nM | inactive | 1000 nM | 2000 nM | 4000 nM | Active | 19000 nM | Non-Toxic | 4000 nM | 3000 nM | Active | 2000 nM | Active | 2000 nM | Activity (HMLE [36]): Active; Activity [37]: Toxic; Activity [38]: Toxic; Drug uptake [39]: Not Active; Drug uptake [40]: Active; Drug uptake [24]: Active; Activity [41]: Toxic; IC50 (HCT-116 [25]): 2000 nM; Activity [42]: Toxic; IC50 [28]: 2000 nM; IC50 at 72 h [29]: 20000 nM; Activity (MCF7 [30]): inactive; Activity [43]: Toxic; Activity [33]: Toxic; Drug uptake [34]: Not Active; IC50 (MCF7 [35]): 2000 nM
